The source of these data is article PMC9291521 (Frontiers in Chemistry, 2022).

As usually defined, the Ki is a dissociation constant, usually derived from enzyme kinetics or from competition with a known ligand.

Each structure is given as a SMILES string. Where two headings read alike, the source gives them in different places. Residues, ends and D or L forms follow the SMILES beside them. *: point of attachment. Cbz = O=C(OCc1ccccc1)*

One test concerns the target SARS-CoV-2 3CL protease (Severe acute respiratory syndrome coronavirus 2, UniProt P0DTD1). The test is described as follows: Kinetic assay of SARS-CoV-2 3CL-PR inhibition (FRET substrate). It is filed as biochemical. To be noted: after 30-min incubation; pH 7.2; read-out: Ki* 3CLpro.
The test system of test [1] is SARS-CoV-2-infected Vero E6 cells. Nature of the test: Micro-neutralization assay, virus-induced cytopathic effect in Vero E6 cells. It is filed as cell-based. (Cytopathic effects are the visible damage that an infection or toxin causes in cultured cells.)
Test [2] deals with SARS-CoV-2-infected A549/ACE2 cells. The test is described as follows: microbe, parasite or virus in culture. The test is classed as cell-based.
Test [3] addresses T1, human cathepsin L (Homo sapiens, UniProt P07711). To be noted: for fold more potent for human cathepsin L than for cruzain (Ki*): hCatL vs cruzain; for Ki: read-out: Ki* hCatL, after 30-min incubation, pH 5.5, fit of vs/v0 to Eq. 5.
Protocol: (§1) Recombinant proteases were obtained from the following vendors: recombinant human cathepsin L (Millipore Sigma, Athens Research and Technology, Inc.), and human liver cathepsin B (Millipore Sigma), which were used without further purification. […] These samples were then diluted into the same buffer to concentrations of ∼100 nM, and these dilutions were stored at 4°C and used daily until depletion.
(§2) For assays of cathepsin L and B, inhibitors were evaluated in 0.25-ml reaction mixtures containing a buffer of sodium acetate (pH 5.5), 1 mM CHAPS, 1 mM Na2EDTA, and 5 mM DTT at 25°C. The fluorogenic substrate Cbz-Phe-Arg-7-amino-4-methyl-coumarin (Z-FR-AMC) was dissolved in 100% DMSO, as were all inhibitors and aliquots of both substrates, and inhibitors were added to the reaction mixtures with final concentrations of DMSO of 10% (v/v). […] Formation of the fluorescent product AMC was monitored over 30–60-min time courses for reaction mixtures in 96-well black microplates (Greiner). Rates of peptidolysis of the dipeptide-AMC substrate(s) were measured on either a SpectraMax M2 (Molecular Devices) or a Synergy Mx (Biotek, Wisnooki, VT) microplate reader which measured the formation of fluorescence using an excitation wavelength of λex = 360 nm, with detection of emission at λem = 460 nm at ≥8-s intervals. Control samples excluded substrate. The measured relative fluorescence units (RFUs) of generated AMC were converted to reaction rates of μM/s by use of a standard curve of known AMC concentrations obtained for both plate readers.
A further test addresses cruzain. To be noted: pH 7.5; ref Li et al., 2021; cited from earlier work.
Test [4] deals with T1, human cathepsin L. The test is described as follows: biochemical.
Protocol: as §1, §2
Another test concerns the target T2, human cathepsin B (Homo sapiens, UniProt P07858).
T2 construct: purchased Millipore Sigma; host or cells: human liver (so in the source)
Nature of the test: Kinetic assay of human cathepsin B inhibition (Z-FR-AMC peptidolysis). The test is classed as biochemical. To be noted: after 30-min incubation; pH 5.5; read-out: Ki* hCatB.

Test [5] deals with SARS-CoV-2-infected Vero E6 cells. To be noted: cited from earlier work.
The test system of test [6] is SARS-CoV-2-infected A549/ACE2 cells. To be noted: read-out: Anti-CoV-2 EC50 A549/ACE2 Cells, cited from earlier work.
Where [7] appears, read: Severe acute respiratory syndrome coronavirus 2, Vero C1008, 72 h, prevention of CPE, 3 days, read-out: Anti-CoV-2 EC50 Vero E6 Cells.
[8] abbreviates: Severe acute respiratory syndrome coronavirus 2, A549-ACE2, 96 h, read-out: Anti-CoV-2 EC50 A549/ACE2 Cells.
The mark [9] stands for this setting: Ki (initial EI complex), fit of vi/v0 vs. [I] to Eq. 4.
[10] abbreviates: Ki* hCatL, after 30-min incubation, pH 5.5, fit of vs/v0 to Eq. 5.
Setting [11] is: previously reported, ref Li et al., 2021.
The mark [12] stands for this setting: Severe acute respiratory syndrome coronavirus 2, A549-ACE2, 96 h, prevention of CPE, 4 days, read-out: Anti-CoV-2 EC50 A549/ACE2 Cells.
[13] abbreviates: Severe acute respiratory syndrome coronavirus 2, A549-ACE2, read-out: EC50 A549/ACE2 cells.

T1 sequence (P07711 114-333): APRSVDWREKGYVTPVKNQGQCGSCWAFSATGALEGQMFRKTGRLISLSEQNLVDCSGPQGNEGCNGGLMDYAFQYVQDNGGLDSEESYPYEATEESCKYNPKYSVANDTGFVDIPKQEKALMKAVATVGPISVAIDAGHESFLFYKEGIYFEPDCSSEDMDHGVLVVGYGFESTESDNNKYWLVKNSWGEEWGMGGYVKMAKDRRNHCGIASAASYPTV

Consider `O=C[C@H](Cc1ccccc1)NC(=O)[C@H](Cc1ccccc1)NC(=O)OCc1ccccc1` [Compound 1, Cbz-Phe-Phe-CHO] (Cbz-Phe-Phe-aldehyde), for which the Ki at SARS-CoV-2 3CL protease is over 10 µM; on cruzain, 0.00044 ± 2e-05 µM; at human cathepsin L [4] (setting [9]) it was 0.00018 ± 0.00022 µM; at human cathepsin L [4] (setting [10]), 0.00014 ± 1e-05 µM. Also, the EC50 is 0.47 µM in [1] (setting [7]); 7.5 µM in [1] (Severe acute respiratory syndrome coronavirus 2, Vero C1008, repeat of the experiment with a different sample of 1, read-out: Anti-CoV-2 EC50 Vero E6 Cells); over 20 µM in [2] (setting [8]). In addition, the “fold more potent for human cathepsin L than for cruzain (Ki*)” value on human cathepsin L [3] is listed as 3 fold.
`O=C(N[C@@H](Cc1ccccc1)C(=O)N[C@H]1Cc2ccccc2OC1O)OCc1ccccc1` (stereo partly drawn) [Compound 2, Cbz-Phe-o-Tyr-CHO]: the Ki was 4.5 µM on human cathepsin B; over 10 µM at SARS-CoV-2 3CL protease; 0.049 ± 0.002 µM on cruzain; 0.054 ± 0.006 µM at human cathepsin L [4] (setting [9]); 0.0126 ± 0.0004 µM at human cathepsin L [4] (setting [10]); about 0.2 µM at human cathepsin L [4] (k4Ki/k3 ∼ Ki*, calculated from the Eq. 3 parameters). Moreover, the results for the EC50 in [1] (setting [7]) and in test [2] (setting [8]) were 10 ± 5 µM and over 20 µM, respectively. Also, the “fold faster k4 than aldehyde 1” value at human cathepsin L [3] (conversion of EI* to EI) is about 5 fold. For the same compound, the “fold more potent for human cathepsin L than for cruzain (Ki*)” value at human cathepsin L [3] was 3.9 fold. At human cathepsin L [3] (intercept of kobs vs. [I], fit to Eq. 3), the “k4 (reversion of EI* to EI)” value came to 0.0016 ± 0.0002 s⁻¹. For the same compound, at human cathepsin L [3] (relative to aldehyde 1), the “fold less potent inhibitor of cathepsin L than 1 (Ki*)” value is given as 100 fold.
Turning to `COc1ccc2c(c1)C[C@H](NC(=O)[C@H](Cc1ccccc1)NC(=O)OCc1ccccc1)C(O)O2` (stereo partly drawn) [Compound 3], the Ki was 5.5 µM at human cathepsin B, over 10 µM at SARS-CoV-2 3CL protease, 0.017 ± 0.0009 µM on human cathepsin L [3] and 0.35 ± 0.03 µM on cruzain. Also, the “fold increase in Ki* compared to 2” value at human cathepsin L [3] (cathepsin L) is on record as 1.4 fold.
As for `Cc1ccc2c(c1)C[C@H](NC(=O)[C@H](Cc1ccccc1)NC(=O)OCc1ccccc1)C(O)O2` (stereo partly drawn) [Compound 4], the inhibition constant Ki on human cathepsin B is 6.1 µM; on SARS-CoV-2 3CL protease, over 10 µM; at human cathepsin L [3], 0.026 ± 0.0009 µM; at cruzain, 0.103 ± 0.005 µM. For the same compound, at human cathepsin L [3] (cathepsin L), the “fold increase in Ki* compared to 2” value was found to be 2 fold.
Regarding `O=C(N[C@@H](Cc1ccccc1)C(=O)N[C@H]1Cc2cc(Cl)ccc2OC1O)OCc1ccccc1` (stereo partly drawn) [Compound 5], the Ki on human cathepsin B is 1.4 ± 0.1 µM; on SARS-CoV-2 3CL protease, over 10 µM; at human cathepsin L [3], 0.0121 ± 0.0003 µM; on cruzain, 0.07 ± 0.01 µM.
Consider `O=C(N[C@@H](Cc1ccccc1)C(=O)N[C@H]1Cc2cc(F)ccc2OC1O)OCc1ccccc1` (stereo partly drawn) [Compound 6], for which the inhibition constant (Ki) was 2.3 µM on human cathepsin B, over 10 µM on SARS-CoV-2 3CL protease, 0.0103 ± 0.0005 µM at human cathepsin L [3] and 0.048 ± 0.002 µM on cruzain. Also, in test [1] (setting [7]), the EC50 was 4 µM.
In the case of `COC(=O)c1ccc2c(c1)C[C@H](NC(=O)[C@H](Cc1ccccc1)NC(=O)OCc1ccccc1)C(O)O2` (stereo partly drawn) [Compound 7], the Ki on human cathepsin B was 0.67 ± 0.03 µM; at SARS-CoV-2 3CL protease, over 10 µM; at human cathepsin L [3], 0.0048 ± 0.0002 µM; on cruzain it was 0.018 ± 0.0005 µM. The EC50 in [1] (setting [7]) came to 2.5 µM. Also, the “fold improved potency over 2” value on human cathepsin L [3] (cathepsin L) is reported as 2.6 fold.
With `CN1CCN(C(=O)NC(Cc2ccccc2)C(=O)NC2Cc3ccccc3OC2O)CC1` (stereo not drawn) [Compound 8, NMe-Pip-Phe-o-Tyr-CHO], the Ki was 1.27 ± 0.07 µM at human cathepsin B; over 10 µM on SARS-CoV-2 3CL protease; 0.047 ± 0.002 µM on cruzain; 0.022 ± 0.001 µM on human cathepsin L [4] (setting [9]); 0.009 ± 0.0004 µM at human cathepsin L [4] (setting [10]). The EC50 in [1] (setting [7]) was found to be 9 ± 2 µM. The “anti-viral effect in infected A549/ACE2 cells” value in [2] (in words) was “no anti-viral effect”.
For `CC(C)[C@H](NC(=O)OCc1ccccc1)C(=O)N[C@@H](CC1CCCCC1)C(=O)N[C@H]1Cc2cccnc2OC1O` (stereo partly drawn) [Compound 9], the Ki was 0.009 ± 0.002 µM at SARS-CoV-2 3CL protease and 0.022 ± 0.004 µM at human cathepsin L [4] (setting [10]). For the same compound, the “effect in SARS-CoV-2-infected Vero E6 cells” value in test [5] (setting [11]) is listed as “no effect”. Besides, the EC50 in test [6] (setting [11]) is 3.75 µM.
For the compound `CC(=O)OC1Oc2ccccc2CC1NC(=O)C(Cc1ccccc1)NC(=O)N1CCN(C)CC1` (stereo not drawn) [Compound 10], the EC50 in test [1] (setting [7]) amounted to 2.5 µM; in test [2] (setting [12]) it was 0.31 µM; in test [2] (setting [13]), 0.312 µM.
For `CCC(=O)OC1Oc2ccccc2CC1NC(=O)C(Cc1ccccc1)NC(=O)N1CCN(C)CC1` (stereo not drawn) [Compound 11], the EC50 in test [1] (setting [7]) came out at 2.5 µM; in [2] (setting [12]), 0.62 µM; in test [2] (setting [13]), 0.625 µM.
For the compound `CC(C)C(=O)OC1Oc2ccccc2CC1NC(=O)C(Cc1ccccc1)NC(=O)N1CCN(C)CC1` (stereo not drawn) [Compound 12], the EC50 was found to be 3.75 µM in test [1] (setting [7]); 4 µM in test [1] (prevention of CPE, 3 days, read-out: Anti-CoV-2 EC50 Vero E6 Cells); 0.31 µM in test [2] (setting [12]); 0.156 µM in test [2] (setting [13]).
With `CN1CCN(C(=O)N[C@@H](Cc2ccccc2)C(=O)N[C@H](/C=C/S(=O)(=O)c2ccccc2)CCc2ccccc2)CC1` [Compound K777], the EC50 is 0.15 µM in test [1] (Severe acute respiratory syndrome coronavirus 2, Vero C1008, 72 h, read-out: Anti-CoV-2 EC50 Vero E6 Cells); 0.156 µM in test [1] (Severe acute respiratory syndrome coronavirus 2, Vero C1008, read-out: EC50 Vero E6 cells); 0.625 µM in test [5] (previously found, ref Mellott et al., 2021, read-out: EC50 Vero E6 cells); 0.62 µM in test [5] (ref Mellott et al. (2021), read-out: Anti-CoV-2 EC50 Vero E6 Cells); under 0.078 µM in test [6] (ref Mellott et al. (2021)).
In the case of `CC(C)(C)[C@H](NC(=O)C(F)(F)F)C(=O)N1C[C@H]2[C@@H]([C@H]1C(=O)N[C@H](C#N)C[C@@H]1CCNC1=O)C2(C)C` [PF-07321332, reference compound], the EC50 in test [1] (setting [7]) was over 20 µM; in [2] (setting [8]), 0.47 µM; in test [5] (ref Owen et al. (2021), read-out: Anti-CoV-2 EC50 Vero E6 Cells), 0.074 µM; in test [6] (ref Owen et al. (2021)), 0.077 µM.
